Converted amounts (≈) assume the structure as drawn.
What was measured:
[1] = tested on: carrageenan (CGN) induced inflammation; assay: carrageenan induced inflammation, paw volume by plethysomometry (Example 1, FIG. 1); format: in vivo
Method: Carrageenan (2%, 10 microlitres) was administered into the right hind paw, and the paw volume assessed by plethysomometry. 2-methoxyadenosine was administered at the same time as carrageenan. 2-methoxyadenosine was as effective as indomethacin (Indo, 3 mg/kg p.o.).

[2] = tested on: blood pressure and heart rate; assay: radiotelemetry of blood pressure and heart rate (Example 2, FIG. 2); format: in vivo, rat; conditions: 0.6 mg/kg p.o., rats
Method: FIG. 2: An implantable radiotelemetry device was placed in the abdominal cavity of 6 rats per group. The pressure catheter of the device was inserted in the abdominal aorta and two electrodes tunnelised under the skin in a lead II position (left side of abdominal cavity/right shoulder). Individual rats were placed in their own cage on a radioreceptor (DSI) for data acquisition. The effect of 0.6 mg/kg 2-methoxyadenosine or vehicle (p.o.) on blood pressure was then assessed. A: blood pressure; B: heart rate.

[3] = plasma concentration over time after administration (Example 3, FIG. 3); format: in vivo, rat
Method: The EC50 value of 2-methoxyadenosine at the adenosine A2A receptor is 900 ng/ml (3 μM). […] It can be seen that the plasma concentration remains above 2% of the EC50 value for more than 3 hours. Anti-inflammatory effects have been observed (without blood pressure changes) when the peak and maintained plasma concentrations are as low […] (i.e. 2% of the EC50 value determined in vitro).

[4] = tested on: carageenan-induced oedema in a rat paw; conditions: rats, 20 mg/kg po; cited from earlier work
[5] = tested on: mean blood pressure and heart rate; conditions: rats, 20 mg/kg po; cited from earlier work
adenosine A2A receptor = conditions: cited from earlier work

time the plasma concentration remains above 2% of the EC50 value ([3]; 0.6 mg/kg to a rat): more than 3 hours
Compound: COc1nc(N)c2ncn([C@@H]3O[C@H](CO)[C@@H](O)[C@H]3O)c2n1 [2-methoxyadenosine]
effect on blood pressure ([1]; 62.4 and 624 μg/kg i.p.): without affecting blood pressure
inhibition of carrageenan (CGN) induced inflammation (paw volume) ([1]; 62.4 and 624 μg/kg i.p., given at the same time as carrageenan, versus indomethacin 3 mg/kg po): comparable efficacy to indomethacin
plasma concentration at which profound anti-inflammatory activity is seen ([1]; plasma concentration): ≤ 0.2 µM
effect on blood pressure [2]: no significant effect
effect on heart rate [2]: no significant effect
peak and maintained plasma concentration at which anti-inflammatory effects were observed without blood pressure changes ([3]; as low as, stated as 2% of the EC50 value): 8 ng/mL
effect on blood pressure when the peak plasma concentration reaches the EC50 value ([3]; peak plasma concentration 900 ng/ml, lasts for many hours): profound reductions in blood pressure
inhibition of carageenan-induced inflammation [4]: 25%
reduction in heart rate [5]: 25%
reduction in mean blood pressure [5]: 41%
EC50 (adenosine A2A receptor; Daly et al. 1993): 3000 nM
EC50 value at the adenosine A2A receptor (adenosine A2A receptor; determined in vitro): 900 ng/mL (≈ 3.03 µM)

— patent US7790698B2, “Use of adenosine receptor agonists in therapy” (Cambridge Biotechnology Ltd, priority 2003, dated 2010)
